The subject of data set [1] is SK-MEL-5 BRAF (V600E) melanoma cells. The data set can be described thus: Co-culture of stroma (WI-38 or HS-5) and cancer cells. Format: cell-based, human. On the procedure: SK-MEL-5 BRAF (V600E) melanoma cells were co-cultured with the lung-derived stromal cell line WI-38 or with the bone marrow-derived stromal cell line HS-5 with or without vemurafenib (4 μM). […] Vehicle—DMSO, EGFRi—gefitinib (0.1 μM), EGFRi/HER2i—lapatinib (10 nM), METi—crizotinib (0.1 μM), FGFRi—AZD4547 (50 nM), NFkB/TNFRi—CAPE (10 μM), TGFBRi-LY2109761 (0.5 μM), gp130i—SC144 (1 nM). […] Error bars represent standard error. […] Error bars represent standard error. […] Human BRAF (V600E) melanoma cell lines UACC62 or G361 were used to generate xenograft tumor models in various tissues of nude mice. When tumors reached a volume of 500-700 μmm^3, they were resected, sliced, and cultured ex-vivo in the presence of different drug combinations or DMSO control. Following 4 days of drug treatment, slices were fixed, embedded in paraffin blocks, and subjected to immunohistochemistry, using anti-pERK antibody, or to immuno-fluorescence, using anti-pFGFR1 antibody. BRAFi (vemurafenib, 4 μM), FGFRi (AZD4547, 2 μM). Scale bar represents 50 μm.
Four hours later, the melanoma BRAF (V600E) mutated cell line SK-MEL-5 was seeded on top of the stromal cells at a concentration of 1700 cells per well, or seeded without stroma. […] Concentrations of the inhibitors were based on dose curves with SK-MEL-5. For each inhibitor of potential mechanism of resistance, the maximal concentration with minimal effect (toxicity) on cell growth was selected (Cmax).
To compare rScore value of stroma-mediated resistance with or without a given inhibitor, the rScore values of each inhibitor in the presence of stroma, was calculated. As a reduction in rScore may stem from mere toxicity of the inhibitor, rather than the abrogation of the stroma mediated resistance, each inhibitor rScore was penalized by its toxicity.
rScoreinhibitor=rScoreinhibitor+(rScorestroma−rScoreinhibitor)*tOxicitY(Cmax)inhibitor

In data set [2] the test system is UACC62 melanoma BRAF (V600E) cell line. The data set can be described thus: Human and mouse factor mediated resistance to vemurafenib in vitro. It counts as cell-based. As to conditions: for factor-mediated resistance to vemurafenib: FGF2 25 ng/ml. On the procedure:
P-value of the rScore abrogation following the addition of FGFRi was calculated by two-sided t-test. ** P<0.01.

For the next data set, the system named is human NSCLC tumor biopsy. The data set can be described thus: EVOC of NSCLC patient biopsies, viability. It counts as cell-based. The settings on record: treatment-naïve patient; osimertinib 4 μM alone. The source says: Error bars represent standard error. […] Scale bar represents 50 μm. […] Error bars represent standard error. […] Scale bar represents 50 μm.
Scale bar represents 50 μm. […] Scale bar represents 50 μm. […] Scale bar represents 50 μm.

For data set [3], the system named is BRAF (V600E) melanoma cell lines. The data set can be described thus: High-throughput secretome screen of GFP-labeled cells (rScore, bScore, ranks). It counts as cell-based, human. The settings on record: for effect on resistance to BRAF/MEK inhibition (rScore sorted, 297 factors): UACC62 cell line. Here is the method:
Cell lines—All cell lines (Table 1 hereinbelow) were cultured in DMEM supplemented with 100 units/ml Penicillin and Streptomycin, 2 μmM Glutamine, 1 μmM Pyruvate and 10% FCS, and maintained in a humidified incubator at 37° C. and 5% CO2. Cells were routinely tested for Mycoplasma contamination by PCR. To generate stable cell lines constitutively expressing GFP, cells were infected with lentivirus bearing plasmid pLEX_TRC206 and sorted by FACS to enrich for GFP positive population. For the in-vitro experiments, human cancer cell lines which constitutively expressed GFP were treated with various cytotoxic and targeted drugs (see Table 1 hereinbelow); and the effect of different secreted factors (Table 2 hereinbelow) on the innate resistance to a drug based on the cells' GFP level was determined.
High throughput in-vitro screens—For high-throughput screens or drug dose curves, cells were counted by Vi-Cell XR (Beckman coulter). Cells were seeded on 384 wells plates (Corning, 3712) using the EL406 washer dispenser (BioTek). Liquid handling of medium and drugs was effected by CyBi (WellFlex vario, CyBio). GFP fluorescence of cells was measured at 477/517 nm (excitation/emission) using Cytation3 (BioTek). Due to fluorescence reading bias at plate margins and corners, these margins were discarded for analysis.
High-throughput secretome screens—To screen for the effect of secreted factors on the response of cell lines to different drugs, the following seven-days procedure was performed. On day 0, GFP expressing cells were seeded at 1500-2000 cells per well on 384-wells plates (Corning, 3712), depending on the cell line's proliferation rate. Each plate was seeded with one cell line. At day 1, each plate was treated with the secretome library (Table 2 hereinabove), one well per factor. Immediately afterwards, each plate was treated either with a drug (Table 1 hereinabove) at the EC90 concentration or with DMSO control. The CyBi liquid handler was used to treat each plate with a drug and the secretome library as well as to replace the medium, drug and secreted factors following 3 days of incubation (day 4). Cell fluorescence was read at days 1, 4 and 7 by Cytation3, and for some of the experiments at day 6 as well. Wells of interest were imaged at day 7 using the Operetta (PerkinElmer).
(2) Based on observations, the plate area spanning rows 4-13 and columns 4-21 was hardly affected by plate margins biases. This area is referred to herein as plate core. To control for row specific and column specific biases, plate outliers (Zscore>4 or Zscore<−4) and edges were masked. Next, to capture row and column (col) biases for the i-th row and the j-th column, the bias factor was calculated:
Upon QC completion, 199 experiment plates and 79 control (DMSO) plates were left for further analysis. • 4—Scoring methods-A GFP value for wells without secretome factors was obtained by averaging over the plate internal control wells. Those wells contained the solvents used in the secretome library. pScore: The effect of the secreted factors on proliferation under DMSO was evaluated using pScore (proliferation score). Values were given in percent units.
rScore: The effect of the secreted factors on resistance to anti-cancer drugs was evaluated using rScore (rescue score). rScore was assigned to a given factor under two conditions: • 1. drug effect was >30% (residual drug growth<0.7) • 2. proliferation ratio between factor treated and untreated cells in the presence of drug was higher than one:
rSscore=S−S*residual drug growth
Based on manual inspection of the rScore distribution across the data, the threshold for a potential effect on drug resistance was set to 0.2 (FIGS. 8A-D).
(*) Negative values were considered as zero. […] Groups with less than 4 experiments were discarded, finally resulting in 13 groups of experiments (FIG. 1E). […]

[4] abbreviates: 80 experiments of BRAF (V600E) mutated melanoma cell lines treated with BRAF/MEK inhibitors.
Setting [5] is: 80 experiments of BRAF (V600E) mutated melanoma cell lines treated with BRAF/MEK inhibitors, in multiple experiments.
Where [6] appears, read: vemurafenib 2 μM, mTNF 50 ng/ml.

As for `CCCS(=O)(=O)Nc1ccc(F)c(C(=O)c2c[nH]c3ncc(-c4ccc(Cl)cc4)cc23)c1F` [vemurafenib], the “rScore of stroma-conferred resistance” value in data set [1] (co-culture with bone-marrow derived stromal cell line HS-5) and in data set [1] (co-culture with lung-derived stromal cell line WI-38) was over 0.2 each time.
For the molecule `FC(F)(F)c1nnc2c(Sc3ccccc3)nc3ccc(Cl)cc3n12` [R7050, reference compound], the “toxicity to UACC62” value in data set [2] (all concentrations tested) was “not toxic”. The “abrogation of mouse TNF mediated resistance” value in data set [2] (vemurafenib 2 μM, mTNF 50 ng/ml, range of concentrations) is “does not abrogate the mouse TNF mediated resistance”.
For the molecule `C=CC(=O)Nc1cc(Nc2nccc(-c3cn(C)c4ccccc34)n2)c(OC)cc1N(C)CCN(C)C` [osimertinib], the cancer cell viability entry with human NSCLC tumor biopsy was “did not affect cancer cell viability”.
With “FGF2: human FGF2, recombinant secreted factor, FGFR ligand”, the “rank by rScore values (resistance)” value in data set [3] (setting [4]) worked out at 3. Moreover, the rScore result in data set [3] (setting [5]) is reported as “above 0.2”. Moreover, the “effect on resistance to BRAF/MEK inhibition (rScore sorted, 297 factors)” value in data set [3] is recorded as “strongest effect on resistance”. Besides, the “factor-mediated resistance to vemurafenib” value in data set [2] (setting [6]) was “mediated resistance to vemurafenib”.

B1: IL1A: secreted factor of the secretome library (protein, UniProt P01583 113-271, looked up)
Interleukin-1 alpha: SAPFSFLSNVKYNFMRIIKYEFILNDALNQSIIRANDQYLTAAALHNLDEAVKFDMGAYKSSKDDAKITVILRISKTQLYVTAQDEDQPVLLKEMPEIPKTITGSETNLLFFWETHGTKNYFTSVAHPNLFIATKQDYWVCLAGGPPSITDFQILENQA
For B1, the “effect on resistance to BRAF/MEK inhibition (rScore sorted, 297 factors)” value in data set [3] is “strongest effect on resistance”.

B2: CCL4: secreted factor of the secretome library (protein, UniProt P13236 24-92, looked up)
C-C motif chemokine 4: APMGSDPPTACCFSYTARKLPRNFVVDYYETSSLCSQPAVVFQTKRSKQVCADPSESWVQEYVYDLELN
B2: the “effect on resistance to BRAF/MEK inhibition (rScore sorted, 297 factors)” value in data set [3] is “strongest effect on resistance”.

B3: mFGF2: mouse FGF2 (protein, UniProt P15655 10-154, looked up)
Fibroblast growth factor 2: PALPEDGGAAFPPGHFKDPKRLYCKNGGFFLRIHPDGRVDGVREKSDPHVKLQLQAEERGVVSIKGVCANRYLAMKEDGRLLASKCVTEECFFFERLESNNYNTYRSRKYSSWYVALKRTGQYKLGSKTGPGQKAILFLPMSAKS
Take B3: the “factor-mediated resistance to vemurafenib” value in data set [2] (setting [6]) is recorded as “mediated resistance to vemurafenib”.

B4: ACHE: acetylcholinesterase (protein, UniProt P22303 32-614, looked up)
Acetylcholinesterase: EGREDAELLVTVRGGRLRGIRLKTPGGPVSAFLGIPFAEPPMGPRRFLPPEPKQPWSGVVDATTFQSVCYQYVDTLYPGFEGTEMWNPNRELSEDCLYLNVWTPYPRPTSPTPVLVWIYGGGFYSGASSLDVYDGRFLVQAERTVLVSMNYRVGAFGFLALPGSREAPGNVGLLDQRLALQWVQENVAAFGGDPTSVTLFGESAGAASVGMHLLSPPSRGLFHRAVLQSGAPNGPWATVGMGEARRRATQLAHLVGCPPGGTGGNDTELVACLRTRPAQVLVNHEWHVLPQESVFRFSFVPVVDGDFLSDTPEALINAGDFHGLQVLVGVVKDEGSYFLVYGAPGFSKDNESLISRAEFLAGVRVGVPQVSDLAAEAVVLHYTDWLHPEDPARLREALSDVVGDHNVVCPVAQLAGRLAAQGARVYAYVFEHRASTLSWPLWMGVPHGYEIEFIFGIPLDPSRNYTAEEKIFAQRLMRYWANFARTGDPNEPRDPKAPQWPPYTAGAQQYVSLDLRPLEVRRGLRAQACAFWNRFLPKLLSATDTLDEAERQWKAEFHRWSSYMVHWKNQFDHYSKQDRCSDL
With B4, in data set [3] (multiple melanoma cell lines), the “synergism with BRAF and MEK inhibition” value is “synergistic effect”.

B5: LTA: lymphotoxin alpha (protein, UniProt P01374 35-205, looked up)
Lymphotoxin-alpha: LPGVGLTPSAAQTARQHPKMHLAHSTLKPAAHLIGDPSKQNSLLWRANTDRAFLQDGFSLSNNSLLVPTSGIYFVYSQVVFSGKAYSPKATSSPLYLAHEVQLFSSQYPFHVPLLSSQKMVYPGLQEPWLHSMYHGAAFQLTQGDQLSTHTDGIPHLVLSPSTVFFGAFAL
For the molecule B5, the “effect on resistance to BRAF/MEK inhibition (rScore sorted, 297 factors)” value in data set [3] is listed as “strongest effect on resistance”.

B6: TGFB3: Transforming Growth Factor Beta 3 (protein, UniProt P10600 301-412, looked up)
Transforming growth factor …: ALDTNYCFRNLEENCCVRPLYIDFRQDLGWKWVHEPKGYYANFCSGPCPYLRSADTTHSTVLGLYNTLNPEASASPCCVPQDLEPLTILYYVGRTPKVEQLSNMVVKSCKCS
B6: the “rank by bScore values (synergism)” value in data set [3] (setting [4]) is on record as −3. Besides, the bScore entry in data set [3] (setting [5]) is “below −0.15”.

These data come from patent US20240133870A1, “COMBINED TREATMENT FOR CANCER” (Yeda Research and Development Co. Ltd., priority 2021, published 2024).
